Reference: article PMC12388125, “Design, Synthesis, and Pharmacological Activity of the N-(4-(1H-1,2,4-Triazol-1-yl)phenyl)-substituted-amide Derivatives” (Molecules, 2025)
Where two headings read alike, the source gives them in different places.

How the values were obtained:
MES-induced seizures = assay: animal or person; assay type: in vivo, Kunming mice; conditions: for minimal effective dose: Mus musculus, ip, doses 30, 100, 300 mg/kg, read-out: MES, dose at which at least one of three animals was protected; for ED50 (MES) / PI (TD50/ED50) MES: 0.5 h; for ED50 (MES): value (95% CI); for PI (TD50/ED50) MES: Kunming, mouse, in vivo
Experimental: (§1) Pharmacological tests were performed using two experimental animal models, MES and scPTZ, which were divided into three dosage groups of 30, 100, and 300 mg/kg, and the anticonvulsant activity of the target compounds 6a–m and 9a–g, after 0.5 and 4 h of administration, respectively, were tested. Carbamazepine, which is effective in the MES model, was chosen as a positive control, and ethosuximide, which is effective in the scPTZ model, was chosen as a positive control. […]
Protection against the spread of
extension component of the seizure. […]

[1] = test system: pentylenetetrazole-induced clonic seizures; assay: animal or person; assay type: in vivo, Kunming mice; conditions: for minimal effective dose: Mus musculus, sc, read-out: scPTZ, dose at which at least one of three animals was protected; for minimal effective dose / scPTZ, dose at which at least one of three animals was protected: doses 30, 100, 300 mg/kg; for ED50 (scPTZ) / PI (TD50/ED50) scPTZ: 0.5 h; for ED50 (scPTZ): value (95% CI); for PI (TD50/ED50) scPTZ: Kunming, mouse, in vivo
Experimental: as §1
The test compound wa s
Absence of clonic spasms indicated a […]

mice = assay: Rotarod (ROT) neurotoxicity test; conditions: for NT (neurotoxicity, ROT), dose at which at least one of three animals showed neurotoxicity: doses 100, 300 mg/kg; for TD50 (ROT): 0.5 h, value (95% CI)
Experimental: The neurotoxicity of the target compounds was tested using the ROT experimental model, which was divided into two dose groups, 100 and 300 mg/kg, and tested after 0.5 and 4 h of administration, respectively.
The neurotoxicity of the target compounds was determined using the ROT experimental model.
The neurotoxicity of the compounds wa s measured in mice using the rotarod test. Mice
we r e trained to stay on an accelerating rotarod (diameter, 3.2 cm) rotating at 10 rpm. Trained
animals we r e injected with the test compounds (i.p.) and neurotoxicity wa s measured as the
inability of the animal to maintain equilibrium on the rod for at least 1 min in each of the

SMILES	minimal effective dose (MES-induced seizures; 0.5 h after administration)	minimal effective dose (MES-induced seizures; 4 h after administration)	minimal effective dose ([1]; 0.5 h after administration)	minimal effective dose ([1]; 4 h after administration)	NT (neurotoxicity, ROT), dose at which at least one of three animals showed neurotoxicity (mice; 0.5 h after administration)	NT (neurotoxicity, ROT), dose at which at least one of three animals showed neurotoxicity (mice; 4 h after administration)	ED50 (MES) (MES-induced seizures)	PI (TD50/ED50) MES (MES-induced seizures)	ED50 (scPTZ) [1]	PI (TD50/ED50) scPTZ [1]	TD50 (ROT) (mice)	scPTZ, dose at which at least one of three animals was protected ([1]; 4 h after administration)
O=C(Nc1ccc(-n2cncn2)cc1)c1ccc(C(F)(F)F)cc1 [Compound 6j, N-(4-(1H-1,2,4-triazol-1-yl)phenyl)-4-(trifluoromethyl)benzamide]	100 mg/kg	300 mg/kg	100 mg/kg	100 mg/kg	>300 mg/kg	>300 mg/kg	–	–	–	–	–	–
O=C(Nc1ccc(-n2cncn2)cc1)c1cccc(C(F)(F)F)c1 [Compound 6i, N-(4-(1H-1,2,4-triazol-1-yl)phenyl)-3-(trifluoromethyl)benzamide]	30 mg/kg	30 mg/kg	30 mg/kg	100 mg/kg	>300 mg/kg	>300 mg/kg	21.9 mg/kg	17.4	22.8 mg/kg	16.7	381.4 (414.6–350.8) mg	–
O=C(Nc1ccc(-n2cncn2)cc1)c1cccc(Cl)c1 [Compound 6c, N-(4-(1H-1,2,4-triazol-1-yl)phenyl)-3-chlorobenzamide]	100 mg/kg	300 mg/kg	100 mg/kg	100 mg/kg	>300 mg/kg	>300 mg/kg	–	–	–	–	–	–
O=C(Nc1ccc(-n2cncn2)cc1)c1ccc(Cl)cc1 [Compound 6d, N-(4-(1H-1,2,4-triazol-1-yl)phenyl)-4-chlorobenzamide]	300 mg/kg	300 mg/kg	300 mg/kg	> 300 mg/kg	>300 mg/kg	>300 mg/kg	–	–	–	–	–	inactive
CCCCC(=O)Nc1ccc(-n2cncn2)cc1 [Compound 9c, N-(4-(1H-1,2,4-triazol-1-yl)phenyl)pentanamide]	30 mg/kg	30 mg/kg	30 mg/kg	100 mg/kg	300 mg/kg	>300 mg/kg	17.3 mg/kg	15.0	35.5 mg/kg	7.3	260.0 (282.7–239.2) mg	–
O=C(Nc1ccc(-n2cncn2)cc1)c1ccccc1 [Compound 6a, N-(4-(1H-1,2,4-triazol-1-yl)phenyl)benzamide]	300 mg/kg	300 mg/kg	100 mg/kg	100 mg/kg	>300 mg/kg	>300 mg/kg	–	–	–	–	–	–
O=C(Nc1ccc(-n2cncn2)cc1)c1ccc(F)cc1 [Compound 6g, N-(4-(1H-1,2,4-triazol-1-yl)phenyl)-4-fluorobenzamide]	30 mg/kg	30 mg/kg	30 mg/kg	100 mg/kg	>300 mg/kg	>300 mg/kg	13.7 mg/kg	31.3	31.5 mg/kg	13.6	429.1 (466.4–394.7) mg	–
O=C(Nc1ccc(-n2cncn2)cc1)c1ccccc1Cl [Compound 6b, N-(4-(1H-1,2,4-triazol-1-yl)phenyl)-2-chlorobenzamide]	300 mg/kg	100 mg/kg	100 mg/kg	300 mg/kg	>300 mg/kg	>300 mg/kg	–	–	–	–	–	–
CCCCCCCC(=O)Nc1ccc(-n2cncn2)cc1 [Compound 9f, N-(4-(1H-1,2,4-triazol-1-yl)phenyl)octanamide]	100 mg/kg	300 mg/kg	300 mg/kg	> 300 mg/kg	>300 mg/kg	>300 mg/kg	–	–	–	–	–	–
O=C(Nc1ccc(-n2cncn2)cc1)c1ccccc1F [Compound 6e, N-(4-(1H-1,2,4-triazol-1-yl)phenyl)-2-fluorobenzamide]	100 mg/kg	100 mg/kg	100 mg/kg	100 mg/kg	>300 mg/kg	>300 mg/kg	–	–	–	–	–	–
CCCC(=O)Nc1ccc(-n2cncn2)cc1 [Compound 9b, N-(4-(1H-1,2,4-triazol-1-yl)phenyl)butyramide]	30 mg/kg	100 mg/kg	30 mg/kg	100 mg/kg	300 mg/kg	>300 mg/kg	–	–	–	–	–	–
O=C(Nc1ccc(-n2cncn2)cc1)c1ccccc1C(F)(F)F [Compound 6h, N-(4-(1H-1,2,4-triazol-1-yl)phenyl)-2-(trifluoromethyl)benzamide]	100 mg/kg	300 mg/kg	300 mg/kg	> 300 mg/kg	>300 mg/kg	>300 mg/kg	–	–	–	–	–	inactive
CCCCCC(=O)Nc1ccc(-n2cncn2)cc1 [Compound 9d, N-(4-(1H-1,2,4-triazol-1-yl)phenyl)hexanamide]	30 mg/kg	30 mg/kg	100 mg/kg	100 mg/kg	>300 mg/kg	>300 mg/kg	–	–	–	–	–	–
CCCCCCC(=O)Nc1ccc(-n2cncn2)cc1 [Compound 9e, N-(4-(1H-1,2,4-triazol-1-yl)phenyl)heptanamide]	100 mg/kg	300 mg/kg	300 mg/kg	> 300 mg/kg	>300 mg/kg	>300 mg/kg	–	–	–	–	–	–
Cc1ccc(C(=O)Nc2ccc(-n3cncn3)cc2)cc1 [Compound 6m, N-(4-(1H-1,2,4-triazol-1-yl)phenyl)-4-methylbenzamide]	300 mg/kg	300 mg/kg	100 mg/kg	300 mg/kg	>300 mg/kg	>300 mg/kg	–	–	–	–	–	–
CCCCCCCCC(=O)Nc1ccc(-n2cncn2)cc1 [Compound 9g, N-(4-(1H-1,2,4-triazol-1-yl)phenyl)nonanamide]	300 mg/kg	300 mg/kg	300 mg/kg	> 300 mg/kg	>300 mg/kg	>300 mg/kg	–	–	–	–	–	–
